The numbers were not newly measured in patent publication US11723868B2, “Biodegradable polymer microsphere compositions for parenteral administration” (Adare Pharmaceuticals USA, Inc., priority 2016, dated 2023), which cites them from elsewhere.

Structures are written as SMILES.

The conditions of series [1]: properties of drugs used, Table B.
The conditions of series [2]: properties of drugs used, Table B. The source holds these as a separate data set.

As for `COc1cc2c(cc1Cc1cccc(Cl)c1F)c(=O)c(C(=O)O)cn2[C@H](CO)C(C)C` [Drug A, Elvitegravir], the lipophilicity (logP) in series [1] is recorded as 4.67. Also, in series [2], the “Water Solubility” value is less than 3 µg/mL. On to `C[C@@H](O)[C@@H]1NC(=O)[C@H](CCCCN)NC(=O)[C@@H](Cc2c[nH]c3ccccc23)NC(=O)[C@H](Cc2ccccc2)NC(=O)[C@@H](NC(=O)[C@H](N)Cc2ccccc2)CSSC[C@@H](C(=O)N[C@H](CO)[C@@H](C)O)NC1=O` [Drug D, Octreotide], for which the “Water Solubility” value in series [2] is greater than 10000 µg/mL. As to `C#C[C@]1(O)CC[C@H]2[C@@H]3CCC4=CC(=O)CC[C@@H]4[C@H]3C(=C)C[C@@]21CC` [Drug C, Etonogestrel], the logP in series [1] is recorded as 3.40. Moreover, the “Water Solubility” value in series [2] was less than 7 µg/mL.

By logP is commonly meant a log measure of how a compound divides between an organic and an aqueous phase.
